A short description of data set [1]: Metabolite profile of [14C] compound (I) in human hepatocyte incubations. It counts as in vitro ADME. The settings on record: (Ia) 20 μM, 3 h, 37° C., ~2 million cells/mL; relative distribution in radiochromatographic profile. On the procedure: (§1) The compound of formula (I) was used as the [^14C] compound (Ia) (30.4 μCi/mg, radiochemical purity 99.2%), as the monohydrate of the free base. The C-14 label was on the carbon in the 2-position of the thiazole ring.
(§2) Freshly isolated rat hepatocyte preparations were prepared from one male Sprague-Dawley rat. Rat Hepatocytes were prepared according to a standard procedure (Seglen, PO. Preparation of isolated rat liver cells. Methods Cell Biol., 1976, 13: 29-83). Cryopreserved cynomolgus monkey hepatocytes (male, pooled, n=6) and human hepatocytes (3 individual preparation) were purchased from In Vitro Technologies (Baltimore, Md.). Microsomes from male SD Rats (pooled, n=200, 20 mg/mL) and male cynomolgus monkeys (pooled, n=8, 20 mg/mL) were obtained from Xenotech LLC, Kansas City, Kans. Human liver microsomes (male, pooled, n=38) were from BD-Gentest, Woburn, Mass.
(§3) A 6 mM stock solution of the compound of formula (Ia) (the [^14C] of the compound of formula (I) was prepared at by dissolving 3.7 mg of the compound of formula (Ia) into 1:1 acetonitrile/DMSO. The 2 mM stock solution of the compound of formula (Ia) was obtained by diluting an aliquot of the 6 mM stock solution 3-fold with acetonitrile.
Human (3 vials from 3 individuals) and monkey cryopreserved hepatocytes were thawed according to the procedure provided by In Vitro Technologies. Briefly, the caps of the cryovials were loosened to release any trapped liquid nitrogen and kept on ice for 2 min. The caps were tightened and the vials were immersed in a 37° C. water bath for 75-90 sec with gentle shaking. The thawed samples (3 cryovials/[…] for each 50 mL tube) were transferred into 25 mL pre-warmed Krebs-Henseleit buffer in a 50 mL tube and gently inverted. The suspensions were evenly divided into 2 tubes and diluted to 40 mL with pre-warmed Krebs-Henseleit buffer. The tubes were centrifuged in an Eppendorf 5810R centrifuge (Hamburg, Germany) at 200 rpm at 4° C. for 10 min. The supernatant was discarded and the pellet gently suspended in 2 mL of Krebs-Henseleit buffer. All the tubes were combined into one tube, rinsing the empty tubes with 1 mL Krebs-Henseleit buffer. The cells were counted, checked for viability and diluted accordingly with modified Krebs-Henseleit buffer to give a final concentration of 2 million viable cells/mL.
Viability of the hepatocytes was checked using a Trypan Blue exclusion assay and a hemocytometer. A mixture of 0.1 mL of the hepatocyte suspension and 0.1 mL of trypan blue solution were diluted with 0.8 mL of Krebs-Henseleit buffer. The solution was gently mixed and plated onto a Levy hemocytometer (Hausser Scientific) and the viable cells (unstained) were counted under a light microscope. The viability of the hepatocytes ranged from 77% to 90% at the beginning of the incubations.
(§4) Hepatocyte incubations were conducted at 37° C. for 3 h in a NAPCO CO2 6000 incubator (VWR Scientific Products) under a 5% CO2 atmosphere using an orbital shaker at 90 rpm. For each incubation, the final concentration of compound (Ia) was 20 μM and the hepatocyte concentrations were ˜2 million cells/mL. A control incubation, in the absence of hepatocytes, was also performed for 3 h. The incubations were stopped by adding one volume of ice-cold acetonitrile. Each 0.5 mL incubation contained 0.1 M potassium phosphate buffer (pH 7.4), 2.5 mM MgCl2, 2 mg/mL microsomal protein, and 2.0 mM NADPH. The final substrate concentration was 20 μM. The mixtures were incubated in a shaking water bath at 37° C. for 15 min. Control incubations in the absence of microsomes or NADPH were performed for each species. The reactions were stopped with the addition of 1 mL of ice-cold acetonitrile.
HPLC was performed on a Waters Alliance™ system equipped with Waters 2695 pumps and a photodiode array detector (Waters 2996). A Phenomenex Synergy Polar-RP® column (4.6×250 mm, 5 micron) was used for metabolite separation. […]

Data set [2] can be described thus: Metabolite profile of [14C] compound (I) in rat liver microsome incubations. It counts as in vitro ADME, SD rat. Conditions: (Ia) 20 μM, 15 min, 37° C., 2 mg/mL microsomal protein, 2.0 mM NADPH. On the procedure: as §1, §2, §3, §4
HPLC was performed on a Waters Alliance™ system equipped with Waters 2695 pumps and a photodiode array detector (Waters 2996). A Phenomenex Synergy Polar-RP® column (4.6×250 mm, 5 micron) was used for metabolite separation. All HPLC analyses were performed at 1 mL/min flow rate at room temperature. Two HPLC mobile phase and gradient systems were used because all metabolites could not be completely separated on either of the individual HPLC systems. The first system consisted of (A) water with 0.1% formic acid and (B) acetonitrile with 0.1% formic acid as mobile phase. The linear gradient was as follows: 0 min, 20% B; 1 min, 20% B; 41 min, 35% B; 42 min, 90% B; 44 min, 90% B. The column was re-equilibrated at 20% B for 6 min before the next injection. The second HPLC system was used to separate certain co-eluting metabolites that could not be separated by the first system. The mobile phase consisted of (A) water with 0.1% triflouroacetic acid (TFA) and (B) acetonitrile with 0.1% TFA. The gradient was as follows: 0 min, 20% B; 1 min, 20% B; 51 min, 35% B; 52 min, 90% B; 54 min 90% B. The column was equilibrated at 20% B for 6 min prior to the next injection.
On-line radioactivity detection (RAD) was conducted using an INUS β-RAM detector (Model 3, INUS, Tampa, Fla.). The β-RAM was operated with a 500 μL liquid flow cell in the homogeneous liquid scintillation counting mode. A flow rate of 2 mL/min of scintillation cocktail was mixed with the HPLC effluent. The effluent from HPLC was split to the β-RAM detector (90%) and the mass spectrometer (10%) by adjusting the length and diameter of post column tubings. The β-RAM detector provided integrated output detailing the percentage and amount of radioactivity under each radioactive peak.
Hepatocyte and liver microsomal incubations were quenched with acetonitrile and were vortex-mixed for 3 min. […]
On the technique in general: Liver microsomes are vesicles of endoplasmic reticulum, rich in cytochrome P450 enzymes.

Results on 6 compounds are retold here after US20060211705A1, “'N-(2-chloro-6-methylphenyl)-2-[[6-[4-(2-hydroxyethyl)-1-piperazinyl]-2-methyl-4-pyrimidinyl]amino]-5-thiazolecarboxamides metabolites” (priority 2005, published 2006).

For `Cc1nc(Nc2ncc(C(=O)Nc3c(C)cccc3Cl)s2)cc(N2CCNCC2)n1` [M4 (II)], the “% of Radioactivity in Hepatocytes, Human” value in data set [1] turned out to be 1.0%. For the same compound, in data set [2], the “% of Radioactivity in Microsomes, Rat” value was determined as 1.8%.
Take `Cc1nc(Nc2ncc(C(=O)Nc3c(C)cccc3Cl)s2)cc(N2CC[N+]([O-])(CCO)CC2)n1` [M5 (III)]: the “% of Radioactivity in Hepatocytes, Human” value in data set [1] came out at 2.3%. Moreover, the “% of Radioactivity in Microsomes, Rat” value in data set [2] turned out to be 37.3%.
Turning to `Cc1nc(Nc2ncc(C(=O)Nc3c(C)cccc3Cl)s2)cc(N2CCN(CC(=O)O)CC2)n1` [M6 (IV), 2-(4-(6-(5-((2-Chloro-6-methylphenyl)carbamoyl)thiazol-2-ylamino)-2-methylpyrimidin-4-yl)piperazin-1-yl)acetic acid], in data set [1], the “% of Radioactivity in Hepatocytes, Human” value is reported as 9.2%. Besides, the “% of Radioactivity in Microsomes, Rat” value in data set [2] turned out to be 0.7%.
For `Cc1nc(Nc2ncc(C(=O)Nc3c(C)cc(O)cc3Cl)s2)cc(N2CCN(CCO)CC2)n1` [M20 (V)], the “% of Radioactivity in Hepatocytes, Human” value in data set [1] amounted to 2.6%. In addition, the “% of Radioactivity in Microsomes, Rat” value in data set [2] is given as 4.5%.
`Cc1nc(Nc2ncc(C(=O)Nc3c(Cl)cccc3CO)s2)cc(N2CCN(CCO)CC2)n1` [M24 (VI), N-(2-chloro-6-(hydroxymethyl)phenyl)-2-(6-(4-(2-hydroxyethyl)piperazin-1-yl)-2-methylpyrimidin-4-ylamino)thiazole-5-carboxamide]: the “% of Radioactivity in Hepatocytes, Human” value in data set [1] is listed as 2.6%. Moreover, the “% of Radioactivity in Microsomes, Rat” value in data set [2] stood at 4.5%.
As to `Cc1nc(Nc2ncc(C(=O)Nc3c(C)cccc3Cl)s2)cc(N2CCN(CCO)CC2)n1` [Parent (I), N-(2-Chloro-6-methylphenyl)-2-[[6-[4-(2-hydroxyethyl)-1-piperazinyl]-2-methyl-4-pyrimidinyl]amino]-5-thiazolecarboxamide], the “% of Radioactivity in Hepatocytes, Human” value in data set [1] is 77.7%. Also, the “% of Radioactivity in Microsomes, Rat” value in data set [2] was 54.2%.
